# Target: T1, Ketohexokinase (Homo sapiens, UniProt P50053)
# T1 sequence (P50053 whole entry): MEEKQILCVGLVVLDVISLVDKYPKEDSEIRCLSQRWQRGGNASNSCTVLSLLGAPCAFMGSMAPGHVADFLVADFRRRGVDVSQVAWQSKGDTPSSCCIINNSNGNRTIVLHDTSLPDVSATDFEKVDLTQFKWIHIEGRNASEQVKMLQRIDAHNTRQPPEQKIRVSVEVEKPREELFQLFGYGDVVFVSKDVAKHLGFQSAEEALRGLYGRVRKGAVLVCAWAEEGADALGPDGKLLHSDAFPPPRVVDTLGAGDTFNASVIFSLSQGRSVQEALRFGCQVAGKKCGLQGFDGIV
# Assay: Inhibition of human KHK-C preincubated for 15 mins followed by substrate addition and measured after 20 mins in presence of ATP by Rapidfire MS analysis
# Conditions: not given
row,IC50 [nM],SMILES
1,15,C[C@H]1CCN1c1nc(-c2cnn(C3CCNCC3)c2)cc(C(F)(F)F)n1
2,28,C[C@H]1CCN1c1nc(-c2cnn(CCN(C)C)c2)cc(C(F)(F)F)c1C#N

# Test system: Hepatocyte
# Assay: Cytotoxicity against rat Primary hepatocyte
# Format: toxicity, cell-based
# Conditions: hepatocytes
row,SMILES,LC20 [nM]
1,C[C@H]1CCN1c1nc(-c2cnn(CC(=O)N3C[C@H](O)[C@@H](O)C3)c2)cc(C(F)(F)F)c1C#N,> 50000
2,C[C@H]1CCN1c1nc(-c2cnn(CC(=O)N3C[C@@H](O)[C@H](O)C3)c2)cc(C(F)(F)F)c1C#N,> 50000
3,C[C@H]1CCN1c1nc(-c2cnn(C3CCNCC3)c2)cc(C(F)(F)F)n1,23000
4,C[C@H]1CCN1c1nc(-c2cnn(CCN(C)C)c2)cc(C(F)(F)F)c1C#N,> 50000

# Test system: not listed separately
# Assay: Inhibition of mouse KHK-A
# Conditions: not given
row,IC50 [nM],SMILES
1,5,C[C@H]1CCN1c1nc(-c2cnn(CC(=O)N3C[C@H](O)[C@@H](O)C3)c2)cc(C(F)(F)F)c1C#N
2,7,C[C@H]1CCN1c1nc(-c2cnn(CC(=O)N3C[C@@H](O)[C@H](O)C3)c2)cc(C(F)(F)F)c1C#N
3,52,C[C@H]1CCN1c1nc(-c2cnn(C3CCNCC3)c2)cc(C(F)(F)F)n1
4,4.5,C[C@H]1CCN1c1nc(-c2cnn(CCN(C)C)c2)cc(C(F)(F)F)c1C#N

# Test system: not listed separately
# Assay: Permeability in MDCK cells assessed as drug transport measured over 1 hr in presence of P-gp
# Format: ADME, cell-based, Canis lupus familiaris
# Conditions: dog
row,Drug transport [%],SMILES
1,0.5,C[C@H]1CCN1c1nc(-c2cnn(CC(=O)N3C[C@H](O)[C@@H](O)C3)c2)cc(C(F)(F)F)c1C#N
2,0.5,C[C@H]1CCN1c1nc(-c2cnn(CC(=O)N3C[C@@H](O)[C@H](O)C3)c2)cc(C(F)(F)F)c1C#N

# Test system: not listed separately
# Assay: Cmax in dog at 1 mg/kg, iv
# Format: ADME, organism-based, Canis lupus familiaris
# Set-up: dose 1 mg/kg, route iv
# Conditions: in vivo
row,Cmax [nM],SMILES
1,2650,C[C@H]1CCN1c1nc(-c2cnn(CC(=O)N3C[C@H](O)[C@@H](O)C3)c2)cc(C(F)(F)F)c1C#N

# Test system: not listed separately
# Assay: Clearance in dog hepatocytes measured per 10^6 cells
# Format: ADME, cell-based, Canis lupus familiaris, Hepatocyte
# Conditions: read-out: CLH
row,hepatocyte CLint [µL/min/1e6 cells],SMILES
1,< 1.8,C[C@H]1CCN1c1nc(-c2cnn(CC(=O)N3C[C@H](O)[C@@H](O)C3)c2)cc(C(F)(F)F)c1C#N
2,1.9,C[C@H]1CCN1c1nc(-c2cnn(CC(=O)N3C[C@@H](O)[C@H](O)C3)c2)cc(C(F)(F)F)c1C#N

# Test system: not listed separately
# Assay: Half life in dog at 1 mg/kg, iv
# Format: ADME, organism-based, Canis lupus familiaris
# Conditions: in vivo
row,half-life [min],SMILES
1,126,C[C@H]1CCN1c1nc(-c2cnn(CC(=O)N3C[C@H](O)[C@@H](O)C3)c2)cc(C(F)(F)F)c1C#N

# Test system: not listed separately
# Assay: Clearance in dog at 1 mg/kg, iv
# Format: ADME, organism-based, Canis lupus familiaris
# Conditions: in vivo
row,clearance [mL/min/kg],SMILES
1,16,C[C@H]1CCN1c1nc(-c2cnn(CC(=O)N3C[C@H](O)[C@@H](O)C3)c2)cc(C(F)(F)F)c1C#N

# Target: T1, Ketohexokinase
# Assay: Inhibition of human KHK-A preincubated for 15 mins followed by substrate addition and measured after 20 mins in presence of ATP by Rapidfire MS analysis
# Conditions: not given
row,IC50 [nM],SMILES
1,7,C[C@H]1CCN1c1nc(-c2cnn(CC(=O)N3C[C@H](O)[C@@H](O)C3)c2)cc(C(F)(F)F)c1C#N
2,8,C[C@H]1CCN1c1nc(-c2cnn(C3CCNCC3)c2)cc(C(F)(F)F)n1
3,22,C[C@H]1CCN1c1nc(-c2cnn(CCN(C)C)c2)cc(C(F)(F)F)c1C#N

# Test system: not listed separately
# Assay: AUC in rat at 1 mg/kg, iv measured after 12 hrs
# Format: ADME, organism-based
# Set-up: time 12 hrs, dose 1 mg/kg, route iv
# Conditions: in vivo
row,AUC at 12 h [µM·h],SMILES
1,0.381,C[C@H]1CCN1c1nc(-c2cnn(CC(=O)N3C[C@H](O)[C@@H](O)C3)c2)cc(C(F)(F)F)c1C#N
2,0.53,C[C@H]1CCN1c1nc(-c2cnn(CC(=O)N3C[C@@H](O)[C@H](O)C3)c2)cc(C(F)(F)F)c1C#N

# Test system: not listed separately
# Assay: AUC in dog at 1 mg/kg, iv
# Format: ADME, organism-based, Canis lupus familiaris
# Set-up: dose 1 mg/kg, route iv
# Conditions: in vivo
row,AUC [µM·h],SMILES
1,2.5,C[C@H]1CCN1c1nc(-c2cnn(CC(=O)N3C[C@H](O)[C@@H](O)C3)c2)cc(C(F)(F)F)c1C#N

# Test system: not listed separately
# Assay: Half life in rat at 1 mg/kg, iv measured after 12 hrs
# Format: ADME, organism-based
# Conditions: in vivo
row,half-life [min],SMILES
1,30,C[C@H]1CCN1c1nc(-c2cnn(CC(=O)N3C[C@H](O)[C@@H](O)C3)c2)cc(C(F)(F)F)c1C#N
2,36,C[C@H]1CCN1c1nc(-c2cnn(CC(=O)N3C[C@@H](O)[C@H](O)C3)c2)cc(C(F)(F)F)c1C#N

# Test system: not listed separately
# Assay: Clearance in rat hepatocytes measured per 10^6 cells
# Format: ADME, cell-based, Hepatocyte
# Conditions: read-out: CLH
row,hepatocyte CLint [µL/min/1e6 cells],SMILES
1,2.3,C[C@H]1CCN1c1nc(-c2cnn(CC(=O)N3C[C@H](O)[C@@H](O)C3)c2)cc(C(F)(F)F)c1C#N
2,2.2,C[C@H]1CCN1c1nc(-c2cnn(CC(=O)N3C[C@@H](O)[C@H](O)C3)c2)cc(C(F)(F)F)c1C#N

# Target: T1, Ketohexokinase
# Assay: Inhibition of KHK in human HepG2 cells incubated for 3 hrs by Rapidfire MS analysis
# Format: cell-based
# Conditions: not given
row,IC50 [nM],SMILES
1,76,C[C@H]1CCN1c1nc(-c2cnn(CC(=O)N3C[C@H](O)[C@@H](O)C3)c2)cc(C(F)(F)F)c1C#N
2,109,C[C@H]1CCN1c1nc(-c2cnn(CC(=O)N3C[C@@H](O)[C@H](O)C3)c2)cc(C(F)(F)F)c1C#N
3,26,C[C@H]1CCN1c1nc(-c2cnn(C3CCNCC3)c2)cc(C(F)(F)F)n1
4,82,C[C@H]1CCN1c1nc(-c2cnn(CCN(C)C)c2)cc(C(F)(F)F)c1C#N

# Test system: not listed separately
# Assay: Volume of distribution in rat at 1 mg/kg, iv measured after 12 hrs
# Format: ADME, organism-based
# Conditions: in vivo
row,Vd [L/kg],SMILES
1,4.6,C[C@H]1CCN1c1nc(-c2cnn(CC(=O)N3C[C@H](O)[C@@H](O)C3)c2)cc(C(F)(F)F)c1C#N
2,3.3,C[C@H]1CCN1c1nc(-c2cnn(CC(=O)N3C[C@@H](O)[C@H](O)C3)c2)cc(C(F)(F)F)c1C#N

# Test system: not listed separately
# Assay: Volume of distribution in dog at 1 mg/kg, iv
# Format: ADME, organism-based, Canis lupus familiaris
# Conditions: in vivo
row,Vd [L/kg],SMILES
1,2.7,C[C@H]1CCN1c1nc(-c2cnn(CC(=O)N3C[C@H](O)[C@@H](O)C3)c2)cc(C(F)(F)F)c1C#N

# Test system: not listed separately
# Assay: Metabolic stability in human liver microsomes assessed as compound degradation measured after 30 mins
# Format: ADME, Microsome
# Conditions: read-out: Drug degradation
row,metabolised at 0.5 h [%],SMILES
1,24,C[C@H]1CCN1c1nc(-c2cnn(CC(=O)N3C[C@H](O)[C@@H](O)C3)c2)cc(C(F)(F)F)c1C#N
2,52,C[C@H]1CCN1c1nc(-c2cnn(CC(=O)N3C[C@@H](O)[C@H](O)C3)c2)cc(C(F)(F)F)c1C#N
3,2,C[C@H]1CCN1c1nc(-c2cnn(C3CCNCC3)c2)cc(C(F)(F)F)n1
4,76,C[C@H]1CCN1c1nc(-c2cnn(CCN(C)C)c2)cc(C(F)(F)F)c1C#N

# Test system: not listed separately
# Assay: Thermodynamic solubility of the compound […] at pH 7.4
# Format: physicochemical
# Conditions: read-out: Therm_solubility
row,solubility thermodynamic [µg/mL],SMILES
1,21,C[C@H]1CCN1c1nc(-c2cnn(CC(=O)N3C[C@H](O)[C@@H](O)C3)c2)cc(C(F)(F)F)c1C#N
2,19,C[C@H]1CCN1c1nc(-c2cnn(CC(=O)N3C[C@@H](O)[C@H](O)C3)c2)cc(C(F)(F)F)c1C#N
3,410,C[C@H]1CCN1c1nc(-c2cnn(C3CCNCC3)c2)cc(C(F)(F)F)n1
4,< 1,C[C@H]1CCN1c1nc(-c2cnn(CCN(C)C)c2)cc(C(F)(F)F)c1C#N

# Test system: not listed separately
# Assay: Metabolic stability in rat liver microsomes assessed as compound degradation measured after 30 mins
# Format: ADME, Microsome
# Conditions: read-out: Drug degradation
row,metabolised at 0.5 h [%],SMILES
1,1,C[C@H]1CCN1c1nc(-c2cnn(CC(=O)N3C[C@H](O)[C@@H](O)C3)c2)cc(C(F)(F)F)c1C#N
2,0,C[C@H]1CCN1c1nc(-c2cnn(CC(=O)N3C[C@@H](O)[C@H](O)C3)c2)cc(C(F)(F)F)c1C#N
3,17,C[C@H]1CCN1c1nc(-c2cnn(C3CCNCC3)c2)cc(C(F)(F)F)n1
4,83,C[C@H]1CCN1c1nc(-c2cnn(CCN(C)C)c2)cc(C(F)(F)F)c1C#N

# Test system: not listed separately
# Assay: Metabolic stability in mouse liver microsomes assessed as compound degradation measured after 30 mins
# Format: ADME, Microsome
# Conditions: read-out: Drug degradation
row,metabolised at 0.5 h [%],SMILES
1,20,C[C@H]1CCN1c1nc(-c2cnn(CC(=O)N3C[C@H](O)[C@@H](O)C3)c2)cc(C(F)(F)F)c1C#N
2,13,C[C@H]1CCN1c1nc(-c2cnn(CC(=O)N3C[C@@H](O)[C@H](O)C3)c2)cc(C(F)(F)F)c1C#N
3,8,C[C@H]1CCN1c1nc(-c2cnn(C3CCNCC3)c2)cc(C(F)(F)F)n1
4,100,C[C@H]1CCN1c1nc(-c2cnn(CCN(C)C)c2)cc(C(F)(F)F)c1C#N

# Test system: not listed separately
# Assay: Clearance in human hepatocytes measured per 10^6 cells
# Format: ADME, cell-based, Hepatocyte
# Conditions: read-out: CLH
row,hepatocyte CLint [µL/min/1e6 cells],SMILES
1,3.6,C[C@H]1CCN1c1nc(-c2cnn(CC(=O)N3C[C@H](O)[C@@H](O)C3)c2)cc(C(F)(F)F)c1C#N
2,6.1,C[C@H]1CCN1c1nc(-c2cnn(CC(=O)N3C[C@@H](O)[C@H](O)C3)c2)cc(C(F)(F)F)c1C#N

# Test system: not listed separately
# Assay: Clearance in rat at 1 mg/kg, iv measured after 12 hrs
# Format: ADME, organism-based
# Conditions: in vivo
row,clearance [mL/min/kg],SMILES
1,101,C[C@H]1CCN1c1nc(-c2cnn(CC(=O)N3C[C@H](O)[C@@H](O)C3)c2)cc(C(F)(F)F)c1C#N
2,71,C[C@H]1CCN1c1nc(-c2cnn(CC(=O)N3C[C@@H](O)[C@H](O)C3)c2)cc(C(F)(F)F)c1C#N

# Test system: not listed separately
# Assay: Metabolic stability in dog liver microsomes assessed as compound degradation measured after 30 mins
# Format: ADME, Canis lupus familiaris, Microsome
# Conditions: read-out: Drug degradation
row,metabolised at 0.5 h [%],SMILES
1,9,C[C@H]1CCN1c1nc(-c2cnn(CC(=O)N3C[C@H](O)[C@@H](O)C3)c2)cc(C(F)(F)F)c1C#N
2,2,C[C@H]1CCN1c1nc(-c2cnn(CC(=O)N3C[C@@H](O)[C@H](O)C3)c2)cc(C(F)(F)F)c1C#N
3,15,C[C@H]1CCN1c1nc(-c2cnn(C3CCNCC3)c2)cc(C(F)(F)F)n1
4,100,C[C@H]1CCN1c1nc(-c2cnn(CCN(C)C)c2)cc(C(F)(F)F)c1C#N

# Test system: not listed separately
# Assay: Cmax in rat at 1 mg/kg, iv measured after 12 hrs
# Format: ADME, organism-based
# Set-up: dose 1 mg/kg, time 12 hrs, route iv
# Conditions: in vivo
row,Cmax [nM],SMILES
1,1280,C[C@H]1CCN1c1nc(-c2cnn(CC(=O)N3C[C@H](O)[C@@H](O)C3)c2)cc(C(F)(F)F)c1C#N
2,1830,C[C@H]1CCN1c1nc(-c2cnn(CC(=O)N3C[C@@H](O)[C@H](O)C3)c2)cc(C(F)(F)F)c1C#N

# Test system: not listed separately
# Assay: Inhibition of mouse KHK-C
# Conditions: not given
row,IC50 [nM],SMILES
1,12,C[C@H]1CCN1c1nc(-c2cnn(CC(=O)N3C[C@H](O)[C@@H](O)C3)c2)cc(C(F)(F)F)c1C#N
2,8,C[C@H]1CCN1c1nc(-c2cnn(CC(=O)N3C[C@@H](O)[C@H](O)C3)c2)cc(C(F)(F)F)c1C#N
3,159,C[C@H]1CCN1c1nc(-c2cnn(C3CCNCC3)c2)cc(C(F)(F)F)n1
4,44,C[C@H]1CCN1c1nc(-c2cnn(CCN(C)C)c2)cc(C(F)(F)F)c1C#N

# From ChEMBL document CHEMBL5375962 (J Med Chem, 2023)
